pKi: −log10 of the molar value.
Columns and labels:
[1] = target: T1, Synaptic vesicular amine transporter (Rattus norvegicus, UniProt Q01827); assay: Displacement of [3H]DTBZ from VMAT2 in rat whole brain by liquid scintillation spectrometry
[2] = target: T1, Synaptic vesicular amine transporter; assay: Inhibition of VMAT2-mediated [3H]DA uptake in rat brain synaptic vesicles by liquid scintillation spectrometry; assay type: tissue-based
[3] = target: Synaptic vesicular amine transporter (Rattus norvegicus) (UniProt Q01827); assay: Displacement of [3H]DTBZ from VMAT2 in rat whole brain relative to quinlobelane
Chain of Synaptic vesicular amine transporter (Rattus norvegicus) (Q01827 whole entry): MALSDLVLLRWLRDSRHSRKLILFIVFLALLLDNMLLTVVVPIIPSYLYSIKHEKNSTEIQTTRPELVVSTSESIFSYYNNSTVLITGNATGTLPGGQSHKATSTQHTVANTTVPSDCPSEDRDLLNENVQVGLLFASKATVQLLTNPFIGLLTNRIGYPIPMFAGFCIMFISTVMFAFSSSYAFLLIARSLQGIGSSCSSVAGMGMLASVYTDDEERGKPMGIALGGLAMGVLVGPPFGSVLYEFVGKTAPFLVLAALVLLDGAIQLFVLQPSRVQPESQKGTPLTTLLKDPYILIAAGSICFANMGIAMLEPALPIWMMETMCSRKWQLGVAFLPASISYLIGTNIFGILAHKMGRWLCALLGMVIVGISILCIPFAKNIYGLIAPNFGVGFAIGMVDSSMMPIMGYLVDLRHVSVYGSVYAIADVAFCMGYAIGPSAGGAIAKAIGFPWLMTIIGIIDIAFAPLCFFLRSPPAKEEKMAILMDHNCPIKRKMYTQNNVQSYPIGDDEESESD

[4] = target: Synaptic vesicular amine transporter (Rattus norvegicus) (UniProt Q01827); assay: Ratio of Ki for displacement of [3H]DTBZ from VMAT2 in rat whole brain to Ki for inhibition of VMAT2-mediated [3H]DA uptake in rat brain synaptic vesicles; assay type: tissue-based

T1 sequence (Q01827 whole entry): as above

SMILES: c1cnc2ccc(CC[C@H]3CCC[C@@H](CCc4ccc5ncccc5c4)N3)cc2c1
- pKi [1]: 6.19
- pKi [2]: 7.38
- Ratio Ki [3]: 4
- Ratio Ki [4]: 3

SMILES: c1ccc2nc(CC[C@H]3CCC[C@@H](CCc4ccc5ccccc5n4)N3)ccc2c1
- pKi [1]: 6.53
- pKi [2]: 7.24
- Ratio Ki [3]: 9
- Ratio Ki [4]: 3

SMILES: OC[C@H](O)CN1[C@@H](CCc2ccc3ccccc3n2)CCC[C@H]1CCc1ccc2ccccc2n1
- pKi [1]: 6.20
- pKi [2]: 6.62
- Ratio Ki [3]: 4
- Ratio Ki [4]: 3

SMILES: c1ccc2c(CC[C@H]3CCC[C@@H](CCc4ccnc5ccccc45)N3)ccnc2c1
- pKi [1]: 6.75
- pKi [2]: 7.38

From ChEMBL document CHEMBL3588780, “Quinolyl analogues of norlobelane: novel potent inhibitors of [(3)H]dihydrotetrabenazine binding and [(3)H]dopamine uptake at the vesicular monoamine transporter-2” (Bioorg Med Chem Lett, 2015)
